Consider one substance from patent US20240139211A1, “METHODS AND COMPOSITIONS FOR TREATING AMYOTROPHIC LATERAL SCLEROSIS” (Amylyx Pharmaceuticals, Inc., priority 2022, published 2024).

The data set has as its target T1, OCT1 (Homo sapiens, UniProt O15245).
T1 sequence (O15245 1-554): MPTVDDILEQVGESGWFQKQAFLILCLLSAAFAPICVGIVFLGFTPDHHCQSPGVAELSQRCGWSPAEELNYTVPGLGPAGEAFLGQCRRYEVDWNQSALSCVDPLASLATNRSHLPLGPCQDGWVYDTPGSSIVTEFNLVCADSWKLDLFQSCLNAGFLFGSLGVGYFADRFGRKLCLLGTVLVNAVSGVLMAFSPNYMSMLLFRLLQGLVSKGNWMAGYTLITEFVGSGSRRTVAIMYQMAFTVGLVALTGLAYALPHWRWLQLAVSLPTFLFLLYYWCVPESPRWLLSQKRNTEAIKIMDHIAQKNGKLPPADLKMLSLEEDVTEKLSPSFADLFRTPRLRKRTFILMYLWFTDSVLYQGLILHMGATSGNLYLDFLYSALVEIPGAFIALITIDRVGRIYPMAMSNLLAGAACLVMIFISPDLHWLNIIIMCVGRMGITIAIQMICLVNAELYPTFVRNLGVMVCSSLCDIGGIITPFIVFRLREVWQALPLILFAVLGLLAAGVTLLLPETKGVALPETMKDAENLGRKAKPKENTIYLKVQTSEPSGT
Put plainly: Inhibitor of OCT1, probe substrate uptake. As to conditions: for potency estimated from few doses: read-out: Estimated IC50, OCT1.

[1] abbreviates: two concentrations per test article.

Like-named read-outs stand apart in the source and are kept apart here.

Consider ursodeoxycholic acid, for which the potency estimated from few doses (estimated from two concentrations) is less than 500 µM. Besides, where the note is “estimated from two doses”, the potency estimated from few doses is less than 500 µM. For the same substance, under setting [1], the “Inhibition of OCT1” value is “inhibited” and the “Inhibitor of OCT1” value is reported as “Yes”.
